Measured values published in PubChem BioAssay (NCI).
Where “and” joins values, the source holds several entries; their conditions need not be identical. Equal values may be shown once.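 Where inhibition never reached the appropriate level, the endpoint shown equals the highest concentration tested. Otherwise, values were interpolated linearly from a five-concentration, 48-hour dose response in 96-well plates. Abbreviation: GI50, concentration required for 50% inhibition of growth. At the TGI there is no net growth.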

Key:
Experiment in all cases: NCI-60 cell line screen, 48 h
CCRF-CEM leukemia = system: CCRF-CEM leukemia
RXF 393 renal = system: RXF 393 renal
SNB-19 CNS = system: SNB-19 CNS
NCI-H522 lung = system: NCI-H522 lung
SF-268 CNS = system: SF-268 CNS
MOLT-4 leukemia = system: MOLT-4 leukemia
UACC-62 melanoma = system: UACC-62 melanoma
K-562 leukemia = system: K-562 leukemia
PC-3 prostate = system: PC-3 prostate
MDA-MB-231 breast = system: MDA-MB-231 breast

CCOC(=O)c1cn(CC)c2cc3c(cc2c1=O)SCS3
TGI (CCRF-CEM leukemia): > 100 µM | TGI (RXF 393 renal): > 100 µM | TGI (SNB-19 CNS): > 100 µM | TGI (NCI-H522 lung): > 100 µM | TGI (SF-268 CNS): > 100 µM | TGI (MOLT-4 leukemia): > 100 µM | TGI (UACC-62 melanoma): > 100 µM | TGI (K-562 leukemia): > 100 µM

O=CN1N=C(c2ccc(Nc3ccnc4cc(Cl)ccc34)cc2)CC1c1ccc(Cl)cc1 (configuration not stated)
GI50 (RXF 393 renal): 1.88 µM | TGI (RXF 393 renal): > 100 µM | GI50 (SNB-19 CNS): 1.92 µM | TGI (SNB-19 CNS): > 100 µM | GI50 (PC-3 prostate): 0.475 µM | TGI (PC-3 prostate): > 100 µM | GI50 (MDA-MB-231 breast): 1.43 µM | TGI (MDA-MB-231 breast): > 100 µM | GI50 (NCI-H522 lung): 0.386 µM | TGI (NCI-H522 lung): 30.2 µM | GI50 (SF-268 CNS): 0.847 µM | TGI (SF-268 CNS): > 100 µM | GI50 (MOLT-4 leukemia): 0.529 µM | TGI (MOLT-4 leukemia): > 100 µM | GI50 (UACC-62 melanoma): 0.567 µM | TGI (UACC-62 melanoma): > 100 µM

Cc1cn(Cc2ccccc2CCl)c(=O)n(Cc2ccccc2CCl)c1=O
GI50 (CCRF-CEM leukemia): 1.93 µM | TGI (CCRF-CEM leukemia): 5.5 µM | GI50 (RXF 393 renal): 1.57 µM | TGI (RXF 393 renal): 3.22 µM | GI50 (SNB-19 CNS): 2.57 µM | TGI (SNB-19 CNS): 6.66 µM | GI50 (PC-3 prostate): 1.83 µM | TGI (PC-3 prostate): 3.91 µM | GI50 (MDA-MB-231 breast): 1.86 µM | TGI (MDA-MB-231 breast): 3.57 µM | GI50 (NCI-H522 lung): 1.3 µM | TGI (NCI-H522 lung): 2.94 µM | GI50 (SF-268 CNS): 2.32 µM | TGI (SF-268 CNS): 5.99 µM | GI50 (UACC-62 melanoma): 1.67 µM | TGI (UACC-62 melanoma): 3.16 µM | GI50 (K-562 leukemia): 3.19 µM | TGI (K-562 leukemia): 10 µM

COc1ccc(/C(C#N)=C(/N)SCc2ccccc2Cl)cc1
TGI (CCRF-CEM leukemia): > 100 µM | TGI (RXF 393 renal): 30.9 µM | TGI (SNB-19 CNS): > 10 µM | TGI (NCI-H522 lung): 27.4 µM | TGI (SF-268 CNS): 33.2 µM | TGI (MOLT-4 leukemia): 85.2 µM | TGI (UACC-62 melanoma): 25.4 µM | TGI (K-562 leukemia): 49.5 µM

O=C1NN=C(c2ccc([N+](=O)[O-])cc2)C1n1nc(-c2ccccc2)c2ccccc2c1=O (configuration not stated)
TGI (CCRF-CEM leukemia): > 100 µM | TGI (RXF 393 renal): > 100 µM | TGI (SNB-19 CNS): > 100 µM | TGI (NCI-H522 lung): > 100 µM | TGI (SF-268 CNS): > 100 µM | TGI (MOLT-4 leukemia): > 100 µM | TGI (UACC-62 melanoma): > 100 µM | TGI (K-562 leukemia): > 100 µM

c1ccc(/C(=N\Nc2ccc3ccccc3n2)c2ccccn2)cc1
GI50 (CCRF-CEM leukemia): 0.298 µM | TGI (CCRF-CEM leukemia): 1.47 µM | GI50 (SNB-19 CNS): 1.29 µM | TGI (SNB-19 CNS): > 59.3 µM | GI50 (PC-3 prostate): 1.25 µM | TGI (PC-3 prostate): 55.3 µM | GI50 (MDA-MB-231 breast): 0.839 µM | TGI (MDA-MB-231 breast): 43.4 µM | GI50 (NCI-H522 lung): 0.412 µM | TGI (NCI-H522 lung): 21.7 µM | GI50 (SF-268 CNS): 0.743 µM | TGI (SF-268 CNS): 9.87 µM | GI50 (MOLT-4 leukemia): 0.252 µM | TGI (MOLT-4 leukemia): 0.69 µM | GI50 (UACC-62 melanoma): 0.549 µM | TGI (UACC-62 melanoma): 7.41 µM | GI50 (K-562 leukemia): 0.649 µM | TGI (K-562 leukemia): 6.52 µM

OC1c2ccccc2C2C(O)c3ccccc3C12 (configuration not stated)
TGI (CCRF-CEM leukemia): > 100 µM | TGI (RXF 393 renal): > 100 µM | TGI (NCI-H522 lung): > 100 µM | TGI (SF-268 CNS): > 100 µM | TGI (MOLT-4 leukemia): > 100 µM | TGI (UACC-62 melanoma): > 100 µM | TGI (K-562 leukemia): > 100 µM

O=C(CC(=O)C1CCOC1=O)C(=O)Nc1ccc(Cl)cc1 (configuration not stated)
TGI (CCRF-CEM leukemia): > 100 µM | TGI (RXF 393 renal): > 100 µM | TGI (SNB-19 CNS): > 100 µM | TGI (NCI-H522 lung): > 100 µM | TGI (SF-268 CNS): > 100 µM | TGI (UACC-62 melanoma): > 100 µM | TGI (K-562 leukemia): > 100 µM

c1ccc2c(CN3CCC(C4CCN(Cc5cccc6ccccc56)CC4)CC3)cccc2c1
GI50 (CCRF-CEM leukemia): 13.7 µM and 4 µM | TGI (CCRF-CEM leukemia): 65.3 µM and > 31.6 µM | TGI (RXF 393 renal): 26.9 µM and 43.3 µM | GI50 (SNB-19 CNS): 40.1 µM and > 100 µM | TGI (SNB-19 CNS): > 100 µM | TGI (PC-3 prostate): > 100 µM | TGI (MDA-MB-231 breast): > 74.1 µM | TGI (NCI-H522 lung): 26.3 µM and 23.4 µM | GI50 (SF-268 CNS): 8.99 µM and 78.7 µM | TGI (SF-268 CNS): 28.4 µM and > 100 µM | TGI (MOLT-4 leukemia): 26.6 µM and 99.1 µM | TGI (UACC-62 melanoma): 17.5 µM and 20.9 µM
